Values of other authors, collected in patent US20100137333A1, “ANTIFUNGAL COMPOSITION AND METHODS FOR USING” (priority 2006, published 2010).

Settings: in vivo

| Substance | dermal toxicity |
| --- | --- |
| Poly(vinylpyrrolidone/1-hexadecene) [PVPH] | no demonstrable dermal toxicity |
| poly(vinylpyrrolidone/1-eicosene) [PVPE] | no demonstrable dermal toxicity |
